Measured values as given in patent publication US20260015358A1, “BICYCLIC DERIVATIVES, COMPOSITIONS AND USES THEREOF” (Danatlas Pharmaceuticals Co., Ltd., priority 2023, published 2026).
pIC50: −log10 of the molar value.

How the values were obtained:
[1] = target: T1, WRN [UniPro: Q14191 (WRN_HUMAN), N500-C946] (Homo sapiens (Human), UniProt Q14191); test: WRN ATPase assay (ADP-Glo); format: biochemical; details: WRN enzymatic activity assay
[2] = target: T1, WRN [UniPro: Q14191 (WRN_HUMAN), N500-C946]; test: WRN unwinding assay (FORKF DNA, fluorescence); format: biochemical; details: Table 14

T1 sequence (Q14191 500-946): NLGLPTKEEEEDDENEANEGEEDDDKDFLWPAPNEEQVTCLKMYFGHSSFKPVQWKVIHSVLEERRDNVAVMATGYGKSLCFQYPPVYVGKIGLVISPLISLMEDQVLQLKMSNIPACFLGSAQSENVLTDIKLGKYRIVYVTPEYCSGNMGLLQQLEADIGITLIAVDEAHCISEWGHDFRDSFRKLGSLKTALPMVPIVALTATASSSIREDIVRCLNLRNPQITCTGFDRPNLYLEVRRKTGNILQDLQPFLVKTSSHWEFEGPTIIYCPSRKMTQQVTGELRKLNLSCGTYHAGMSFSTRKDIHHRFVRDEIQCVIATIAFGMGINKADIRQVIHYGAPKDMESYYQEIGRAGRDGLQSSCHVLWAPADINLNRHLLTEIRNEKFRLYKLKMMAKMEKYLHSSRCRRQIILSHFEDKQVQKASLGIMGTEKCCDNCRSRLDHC

| Compound | pIC50 [1] | pIC50 [2] |
| --- | --- | --- |
| CCc1c(N2CCN(C(=O)CNC(=O)c3ccns3)CC2)c(=O)n2nc(C3=CCOCC3)nc2n1CC(=O)Nc1ccc(C(F)(F)F)cc1F [Example 219, N-(2-(4-(2-(3,6-Dihydro-2H-pyran-4-yl)-5-ethyl-4-(2-((2-fluoro-4-(trifluoromethyl)phenyl)amino)-2-oxoethyl)-7-oxo-4,7-dihydro-[1,2,4]triazolo[1,5-a]pyrimidin-6-yl)piperazin-1-yl)-2-oxoethyl)isothiazole-5-carboxamide] | > 7.00 | > 7.00 |
| CCc1c(N2CCN(C(=O)CNC(=O)c3ccno3)CC2)c(=O)n2nc(C3=CCOCC3)nc2n1CC(=O)Nc1ccc(C(F)(F)F)cc1F [Example 220, N-(2-(4-(2-(3,6-Dihydro-2H-pyran-4-yl)-5-ethyl-4-(2-((2-fluoro-4-(trifluoromethyl)phenyl)amino)-2-oxoethyl)-7-oxo-4,7-dihydro-[1,2,4]triazolo[1,5-a]pyrimidin-6-yl)piperazin-1-yl)-2-oxoethyl)isoxazole-5-carboxamide] | > 7.00 | > 7.00 |
| CCc1c(N2CCN(C(=O)CNC(=O)c3ccon3)CC2)c(=O)n2nc(C3=CCOCC3)nc2n1CC(=O)Nc1ccc(C(F)(F)F)cc1F [Example 221, N-(2-(4-(2-(3,6-Dihydro-2H-pyran-4-yl)-5-ethyl-4-(2-((2-fluoro-4-(trifluoromethyl)phenyl)amino)-2-oxoethyl)-7-oxo-4,7-dihydro-[1,2,4]triazolo[1,5-a]pyrimidin-6-yl)piperazin-1-yl)-2-oxoethyl)isoxazole-3-carboxamide] | > 7.00 | > 7.00 |
| CCc1c(N2CCN(C(=O)CNC(=O)c3ncnc(C)c3O)CC2)c(=O)n2nc(C3=CCOCC3)nc2n1CC(=O)Nc1ccc(C(F)(F)F)cc1F [Example 222, N-(2-(4-(2-(3,6-Dihydro-2H-pyran-4-yl)-5-ethyl-4-(2-((2-fluoro-4-(trifluoromethyl)phenyl)amino)-2-oxoethyl)-7-oxo-4,7-dihydro-[1,2,4]triazolo[1,5-a]pyrimidin-6-yl)piperazin-1-yl)-2-oxoethyl)-5-hydroxy-6-methylpyrimidine-4-carboxamide] | > 7.00 | > 7.00 |
| CCc1c(N2CCN(C(=O)CNC(=O)c3cc(N(C)C)ccc3F)CC2)c(=O)n2nc(C3=CCOCC3)nc2n1CC(=O)Nc1ccc(C(F)(F)F)cc1F [Example 224, N-(2-(4-(2-(3,6-Dihydro-2H-pyran-4-yl)-5-ethyl-4-(2-((2-fluoro-4-(trifluoromethyl)phenyl)amino)-2-oxoethyl)-7-oxo-4,7-dihydro-[1,2,4]triazolo[1,5-a]pyrimidin-6-yl)piperazin-1-yl)-2-oxoethyl)-5-(dimethylamino)-2-fluorobenzamide] | > 7.00 | 6.00 to 7.00 |
| [2H]C([2H])(NC(=O)c1ccccc1F)C(=O)N1CCN(c2c(CC)n(C([2H])([2H])C(=O)Nc3ccc(C(F)(F)F)cc3F)c3nc(C4=CCOCC4)nn3c2=O)CC1 [Example 225, N-(2-(4-(2-(3,6-Dihydro-2H-pyran-4-yl)-5-ethyl-4-(2-((2-fluoro-4-(trifluoromethyl)phenyl)amino)-2-oxoethyl-1,1-d2)-7-oxo-4,7-dihydro-[1,2,4]triazolo[1,5-a]pyrimidin-6-yl)piperazin-1-yl)-2-oxoethyl-1,1-d2)-2-fluorobenzamide] | > 7.00 | > 7.00 |
| CCc1c(N2CCN(C(=O)C(=O)Nc3ncco3)CC2)c(=O)n2nc(C3=CCOCC3)nc2n1CC(=O)Nc1ccc(C(F)(F)F)cc1Cl [Example 226, 2-(4-(4-(2-((2-Chloro-4-(trifluoromethyl)phenyl)amino)-2-oxoethyl)-2-(3,6-dihydro-2H-pyran-4-yl)-5-ethyl-7-oxo-4,7-dihydro-[1,2,4]triazolo[1,5-a]pyrimidin-6-yl)piperazin-1-yl)-N-(oxazol-2-yl)-2-oxoacetamide] | > 7.00 | > 7.00 |
| CCc1c(N2CCN(C(=O)C(=O)Nc3nccs3)CC2)c(=O)n2nc(C3=CCOCC3)nc2n1CC(=O)Nc1ccc(C(F)(F)F)cc1F [Example 227, 2-(4-(2-(3,6-Dihydro-2H-pyran-4-yl)-5-ethyl-4-(2-((2-fluoro-4-(trifluoromethyl)phenyl)amino)-2-oxoethyl)-7-oxo-4,7-dihydro-[1,2,4]triazolo[1,5-a]pyrimidin-6-yl)piperazin-1-yl)-2-oxo-N-(thiazol-2-yl)acetamide] | > 7.00 | > 7.00 |
| CCc1c(N2CCN(C(=O)C(=O)Nc3ncco3)CC2)c(=O)n2nc(C3=CCOCC3)nc2n1CC(=O)Nc1ccc(C(F)(F)F)cc1F [Example 228, 2-(4-(2-(3,6-Dihydro-2H-pyran-4-yl)-5-ethyl-4-(2-((2-fluoro-4-(trifluoromethyl)phenyl)amino)-2-oxoethyl)-7-oxo-4,7-dihydro-[1,2,4]triazolo[1,5-a]pyrimidin-6-yl)piperazin-1-yl)-N-(oxazol-2-yl)-2-oxoacetamide] | > 7.00 | > 7.00 |
| CCc1c(N2CCN(C(=O)C(=O)Nc3ccccn3)CC2)c(=O)n2nc(C3=CCOCC3)nc2n1CC(=O)Nc1ccc(C(F)(F)F)cc1F [Example 229, 2-(4-(2-(3,6-Dihydro-2H-pyran-4-yl)-5-ethyl-4-(2-((2-fluoro-4-(trifluoromethyl)phenyl)amino)-2-oxoethyl)-7-oxo-4,7-dihydro-[1,2,4]triazolo[1,5-a]pyrimidin-6-yl)piperazin-1-yl)-2-oxo-N-(pyridin-2-yl)acetamide] | 6.00 to 7.00 | > 7.00 |
| CCc1c(N2CCN(C(=O)CNC(=O)c3ccccc3)CC2)c(=O)n2nc(N3CCOCC3)nc2n1CC(=O)Nc1ccc(C(F)(F)F)cc1Cl [Example 231, N-(2-(4-(4-(2-((2-Chloro-4-(trifluoromethyl)phenyl)amino)-2-oxoethyl)-5-ethyl-2-morpholino-7-oxo-4,7-dihydro-[1,2,4]triazolo[1,5-a]pyrimidin-6-yl)piperazin-1-yl)-2-oxoethyl)benzamide] | > 7.00 | > 7.00 |

Other lines, results leading:

| pIC50 [1] | pIC50 [2] | Compound |
| --- | --- | --- |
| > 7.00 | > 7.00 | CCc1c(N2CCN(C(=O)CNC(=O)c3ccccc3)CC2)c(=O)n2nc(N3Cc4ccncc4C3)nc2n1CC(=O)Nc1ccc(C(F)(F)F)cc1Cl [Example 232, N-(2-(4-(4-(2-((2-Chloro-4-(trifluoromethyl)phenyl)amino)-2-oxoethyl)-2-(1,3-dihydro-2H-pyrrolo[3,4-c]pyridin-2-yl)-5-ethyl-7-oxo-4,7-dihydro-[1,2,4]triazolo[1,5-a]pyrimidin-6-yl)piperazin-1-yl)-2-oxoethyl)benzamide] |
| > 7.00 | > 7.00 | CCc1c(N2CCN(C(=O)CNC(=O)c3ccccc3)CC2)c(=O)n2nc(N3CC4COCC4C3)nc2n1CC(=O)Nc1ccc(C(F)(F)F)cc1Cl (centres unmarked) [Example 233, N-(2-(4-(4-(2-((2-Chloro-4-(trifluoromethyl)phenyl)amino)-2-oxoethyl)-5-ethyl-7-oxo-2-(tetrahydro-1H-furo[3,4-c]pyrrol-5 (3H)-yl)-4,7-dihydro-[1,2,4]triazolo[1,5-a]pyrimidin-6-yl)piperazin-1-yl)-2-oxoethyl)benzamide] |
| 6.00 to 7.00 | > 7.00 | CCc1c(N2CCN(C(=O)CNC(=O)c3ccccc3)CC2)c(=O)n2nc(N3CCc4ncccc43)nc2n1CC(=O)Nc1ccc(C(F)(F)F)cc1Cl [Example 234, N-(2-(4-(4-(2-((2-Chloro-4-(trifluoromethyl)phenyl)amino)-2-oxoethyl)-2-(2,3-dihydro-1H-pyrrolo[3,2-b]pyridin-1-yl)-5-ethyl-7-oxo-4,7-dihydro-[1,2,4]triazolo[1,5-a]pyrimidin-6-yl)piperazin-1-yl)-2-oxoethyl)benzamide] |
| 6.00 to 7.00 | 6.00 to 7.00 | CCc1c(N2CCN(C(=O)CNC(=O)c3ccccc3)CC2)c(=O)n2nc(N3CC4(COC4)C3)nc2n1CC(=O)Nc1ccc(C(F)(F)F)cc1Cl [Example 235, N-(2-(4-(4-(2-((2-Chloro-4-(trifluoromethyl)phenyl)amino)-2-oxoethyl)-5-ethyl-7-oxo-2-(2-oxa-6-azaspiro[3.3]heptan-6-yl)-4,7-dihydro-[1,2,4]triazolo[1,5-a]pyrimidin-6-yl)piperazin-1-yl)-2-oxoethyl)benzamide] |
| 6.00 to 7.00 | 6.00 to 7.00 | CCc1c(N2CCN(C(=O)CNC(=O)c3ccccc3)CC2)c(=O)n2nc(-c3cnc4c(c3)CCCO4)nc2n1CC(=O)Nc1ccc(C(F)(F)F)cc1Cl [Example 236, N-(2-(4-(4-(2-((2-Chloro-4-(trifluoromethyl)phenyl)amino)-2-oxoethyl)-2-(3,4-dihydro-2H-pyrano[2,3-b]pyridin-6-yl)-5-ethyl-7-oxo-4,7-dihydro-[1,2,4]triazolo[1,5-a]pyrimidin-6-yl)piperazin-1-yl)-2-oxoethyl)benzamide] |
| 6.00 to 7.00 | 6.00 to 7.00 | CCc1c(N2CCN(C(=O)CNC(=O)c3ccccc3)CC2)c(=O)n2nc(C(C)(C)C)nc2n1CC(=O)Nc1ccc(C(F)(F)F)cc1Cl [Example 237, N-(2-(4-(2-(Tert-butyl)-4-(2-((2-chloro-4-(trifluoromethyl)phenyl)amino)-2-oxoethyl)-5-ethyl-7-oxo-4,7-dihydro-[1,2,4]triazolo[1,5-a]pyrimidin-6-yl)piperazin-1-yl)-2-oxoethyl)benzamide] |
| 6.00 to 7.00 | 6.00 to 7.00 | CCc1c(N2CCN(C(=O)CNC(=O)c3ccccc3)CC2)c(=O)n2nc(C3CC3)nc2n1CC(=O)Nc1ccc(C(F)(F)F)cc1Cl [Example 238, N-(2-(4-(4-(2-((2-Chloro-4-(trifluoromethyl)phenyl)amino)-2-oxoethyl)-2-cyclopropyl-5-ethyl-7-oxo-4,7-dihydro-[1,2,4]triazolo[1,5-a]pyrimidin-6-yl)piperazin-1-yl)-2-oxoethyl)benzamide] |
| 6.00 to 7.00 | 6.00 to 7.00 | CCOc1nc2n(CC(=O)Nc3ccc(C(F)(F)F)cc3Cl)c(CC)c(N3CCN(C(=O)CNC(=O)c4ccccc4F)CC3)c(=O)n2n1 [Example 239, N-(2-(4-(4-(2-((2-Chloro-4-(trifluoromethyl)phenyl)amino)-2-oxoethyl)-2-ethoxy-5-ethyl-7-oxo-4,7-dihydro-[1,2,4]triazolo[1,5-a]pyrimidin-6-yl)piperazin-1-yl)-2-oxoethyl)-2-fluorobenzamide] |
